Patent US20100267561A1, “HERBICIDAL PYRIDAZINONE DERIVATIVES” (priority 2007, published 2010)

What was measured:
Format in all cases: in vivo
Conditions in all cases: applied alone
[1] = test system: winter wheat (TRZAW, Triticum aestivum); assay: Test F mixtures with safener cloquintocet-mexyl, pre-/postemergence plant response
Text: (§1) This test evaluated the effect of mixtures of Compound 3, Compound 11, or Compound 12 with the commercial crop safener cloquintocet-mexyl on three plant species. Seeds of test plants consisting of winter wheat (TRZAW, Triticum aestivum), winter barley (HORVX, Hordeum vulgare), and wild oat (AVEFA, Avena fatua) (a weed) were planted into a blend of loam soil and sand and treated preemergence with a directed soil spray using test chemicals formulated in a non-phytotoxic solvent mixture that included a surfactant. At the same time, plants selected from these crop and weed species were treated with postemergence applications of the test chemicals formulated in the same manner. Plants ranged in height from 2 to 18 cm (1- to 4-leaf stage) for postemergence treatments.
(§2) Plants were grown in a greenhouse using supplemental lighting to maintain a photoperiod of about 16 hours; daytime and nighttime temperatures were about 24-30° C. and 19-21° C., respectively. Balanced fertilizer was applied through the watering system. Treatments consisted of Compound 3, Compound 11, or Compound 12 and the above mentioned safener alone and in combination using a spray volume of 457 L/ha. Each treatment was replicated three times. Treated plants and controls were maintained in a greenhouse for 14 to 21 days, after which time all treated plants were compared to controls and visually evaluated. Plant response ratings were calculated as the means of the three replicates and are summarized in Tables F1 to F6, and are based on a scale of 0 to 100 where 0 is no effect and 100 is complete control. Because cloquintocet-mexyl alone caused no injury at the rates tested, the expected effect of a mixture of Compound 3 with cloquintocet-mexyl is the same as the observed effect of Compound 3 applied alone.

[2] = test system: winter barley (HORVX, Hordeum vulgare); assay: as above
Text: as §1, §2

[3] = test system: wild oat (AVEFA, Avena fatua); assay: as above
Text: as §1, §2

[4] = test system: winter wheat (TRZAW, Triticum aestivum); assay: Test G mixtures of Compound 26 with crop safeners, postemergence plant response
Protocol: (§3) This test evaluated the effect of mixtures of Compound 26 with commercial crop safeners cloquintocet-mexyl, mefenpyr-diethyl, and fenchlorazole-ethyl on three plant species. Seeds of winter wheat (TRZAW, Triticum aestivum), winter barley (HORVX, Hordeum vulgare), and wild oat (AVEFA, Avena fatua) (a weed) were planted into a silt loam soil. Plants from these seeds were treated postemergence using test chemicals formulated in a non-phytotoxic solvent mixture that included a surfactant. Plants ranged in height from 6 to 10 cm (2- to 3-leaf stage).
(§4) Plants were grown in a greenhouse using supplemental lighting to maintain a photoperiod of about 14 hours; daytime and nighttime temperatures were about 22-26° C. and 15-19° C., respectively. Balanced fertilizer was applied through the watering system. Treatments consisted of Compound 26 and the above mentioned safeners alone and in combination using a spray volume of 281 L/ha. Each treatment was replicated four times. Treated plants and controls were maintained in a greenhouse for 15 days, after which time all treated plants were compared to controls and visually evaluated. Plant response ratings were calculated as the means of the four replicates based on a scale of 0 to 100 where 0 is no effect and 100 is complete control and are summarized in Tables G1 to G3. Because the safeners alone caused no injury at the rates tested, the expected effect of a mixture of Compound 26 with a safener is the same as the observed effect of Compound 26 alone.
(§5) The highest application rate of each safener was tested alone to confirm the absence of herbicidal activity on the test species when appled postemergence at 125 g ai/ha. Therefore, an extrapolated result of zero for each safener alone at 16, 31, or 62 g ai/ha was used to calculate the mixture response of Compound 26 and these safener application rates.

[5] = test system: winter barley (HORVX, Hordeum vulgare); assay: as above
Protocol: as §3, §4, §5

[6] = test system: wild oat (AVEFA, Avena fatua); assay: as above
Protocol: as §3, §4, §5

| Compound | TRZAW Obsd. (observed effect) plant response rating, scale 0 to 100 ([1]; postemergence, 4 g a.i./ha) | TRZAW Obsd. (observed effect) plant response rating, scale 0 to 100 ([1]; postemergence, 8 g a.i./ha) | TRZAW Obsd. (observed effect) plant response rating, scale 0 to 100 ([1]; postemergence, 16 g a.i./ha) | TRZAW Obsd. (observed effect) plant response rating, scale 0 to 100 ([1]; preemergence, 4 g a.i./ha) | TRZAW Obsd. (observed effect) plant response rating, scale 0 to 100 ([1]; preemergence, 8 g a.i./ha) | TRZAW Obsd. (observed effect) plant response rating, scale 0 to 100 ([1]; preemergence, 16 g a.i./ha) | HORVX Obsd. (observed effect) plant response rating, scale 0 to 100 ([2]; postemergence, 4 g a.i./ha) | HORVX Obsd. (observed effect) plant response rating, scale 0 to 100 ([2]; postemergence, 8 g a.i./ha) | HORVX Obsd. (observed effect) plant response rating, scale 0 to 100 ([2]; postemergence, 16 g a.i./ha) | HORVX Obsd. (observed effect) plant response rating, scale 0 to 100 ([2]; preemergence, 4 g a.i./ha) | HORVX Obsd. (observed effect) plant response rating, scale 0 to 100 ([2]; preemergence, 8 g a.i./ha) | HORVX Obsd. (observed effect) plant response rating, scale 0 to 100 ([2]; preemergence, 16 g a.i./ha) | AVEFA Obsd. (observed effect) plant response rating, scale 0 to 100 ([3]; postemergence, 4 g a.i./ha) | AVEFA Obsd. (observed effect) plant response rating, scale 0 to 100 ([3]; postemergence, 8 g a.i./ha) | AVEFA Obsd. (observed effect) plant response rating, scale 0 to 100 ([3]; postemergence, 16 g a.i./ha) | AVEFA Obsd. (observed effect) plant response rating, scale 0 to 100 ([3]; preemergence, 4 g a.i./ha) | AVEFA Obsd. (observed effect) plant response rating, scale 0 to 100 ([3]; preemergence, 8 g a.i./ha) | AVEFA Obsd. (observed effect) plant response rating, scale 0 to 100 ([3]; preemergence, 16 g a.i./ha) | further results |
| --- | --- | --- | --- | --- | --- | --- | --- | --- | --- | --- | --- | --- | --- | --- | --- | --- | --- | --- | --- |
| 4-[3-(4-chlorophenyl)-5-methyl-1H-pyrazol-3-yl]-5-hydroxy-2-methyl-3(2H)-pyridazinone [Compound 3] | 0 | 0 | 22 | 0 | 33 | 77 | 0 | 0 | 15 | 10 | 32 | 68 | 27 | 67 | 83 | 0 | 35 | 60 | – |
| CCc1cc(-c2ccc(C(F)(F)F)cc2)nn1-c1c(O)cnn(C)c1=O [Compound 11, 4-[5-ethyl-3-[4-(trifluoromethyl)phenyl]-1H-pyrazol-1-yl]-5-hydroxy-2-methyl-3(2H)-pyridazinone] | 18 | 3 | 32 | 32 | 72 | 92 | 5 | 55 | 90 | 22 | 70 | 92 | 75 | 97 | 98 | 58 | 77 | 93 | – |
| CCc1c(C)c(-c2ccc(Cl)cc2)nn1-c1c(O)cnn(C)c1=O [Compound 26, 4-[3-(4-chlorophenyl)-5-ethyl-4-methyl-1H-pyrazol-1-yl]-5-hydroxy-2-methyl-3(2H)-pyridazinone] | – | – | – | – | – | – | – | – | – | – | – | – | – | – | – | – | – | – | TRZAW Obsd. (observed effect) plant response rating, scale 0 to 100 ([4]; 62 g a.i./ha): 10; TRZAW Obsd. (observed effect) plant response rating, scale 0 to 100 ([4]; 125 g a.i./ha): 9; TRZAW Obsd. (observed effect) plant response rating, scale 0 to 100 ([4]; 250 g a.i./ha): 36; HORVX Obsd. (observed effect) plant response rating, scale 0 to 100 ([5]; 62 g a.i./ha): 19; HORVX Obsd. (observed effect) plant response rating, scale 0 to 100 ([5]; 125 g a.i./ha): 34; HORVX Obsd. (observed effect) plant response rating, scale 0 to 100 ([5]; 250 g a.i./ha): 45; AVEFA Obsd. (observed effect) plant response rating, scale 0 to 100 ([6]; 62 g a.i./ha): 89; AVEFA Obsd. (observed effect) plant response rating, scale 0 to 100 ([6]; 125 g a.i./ha): 97; AVEFA Obsd. (observed effect) plant response rating, scale 0 to 100 ([6]; 250 g a.i./ha): 99 |
